Some results are limits rather than exact numbers.

For orientation: IC50 means the concentration that gives 50% inhibition. A lower IC50 goes with greater potency.

For the assay, the target named is Sodium/potassium-transporting ATPase. Put plainly: Inhibition of [3H]ouabain binding to Na/K ATP-ase in dog heart muscle. The class given is tissue-based, Canis lupus familiaris, Muscle tissue.
The compound `CC(=O)C1CCC2(O)C3CCC4C[C@H](OC[C@H]5O[C@@H](O)[C@H](O)[C@H](O)[C@H]5O)CCC4(C)C3CCC12C` (stereo not given in full) returned an IC50 of 150 nM.

Turning to `CC(O)[C@H]1CC[C@@]2(O)[C@@H]3CC[C@H]4C[C@@H](OC[C@@H]5O[C@H](O)C[C@@H](O)[C@H]5O)CC[C@]4(C)[C@H]3CC[C@]12C` (stereo not given in full), the IC50 stood at 650 nM.

In turn, `CC(O)[C@H]1CC[C@@]2(O)[C@@H]3CCC4C[C@@H](O)CC[C@]4(C)[C@H]3CC[C@]12C` (stereo not given in full) returned an IC50 of 6400 nM.

On to `C[C@]12CC[C@H](OC[C@H]3O[C@H](O)[C@H](O)[C@@H](O)[C@@H]3O)CC1CC[C@@H]1[C@@H]2CC[C@]2(C)[C@@H](C3=CC(=O)OC3)CC[C@@]12O` (stereo not given in full), for which the IC50 was determined as 7 nM.

`C[C@H](O)C1CC[C@@]2(O)[C@@H]3CC[C@H]4C[C@@H](OC[C@@H]5O[C@H](OC[C@@H]6O[C@H](O)C[C@@H](O)[C@H]6O)C[C@@H](O)[C@H]5O)CC[C@]4(C)[C@H]3CC[C@]12C` (stereo not given in full): the IC50 worked out at 650 nM.

As to `C[C@]12CC[C@H](OC[C@@H]3O[C@H](OC[C@@H]4O[C@H](O)C[C@@H](O)[C@H]4O)C[C@@H](O)[C@H]3O)C[C@@H]1CC[C@@H]1[C@@H]2CC[C@]2(C)[C@@H](C3=CC(=O)OC3)CC[C@@]12O`, the IC50 came out at 8 nM.

For `CC(=O)[C@H]1CC[C@@]2(O)[C@@H]3CC[C@H]4C[C@@H](OC[C@@H]5O[C@H](OC[C@@H]6O[C@H](OC[C@@H]7O[C@H](O)C[C@@H](O)[C@H]7O)C[C@@H](O)[C@H]6O)C[C@@H](O)[C@H]5O)CC[C@]4(C)[C@H]3CC[C@]12C`, the concentration for half-maximal inhibition (IC50) was found to be 1000 nM.

As to `CC(O)[C@H]1CC[C@@]2(O)[C@@H]3CC[C@H]4C[C@@H](OC[C@@H]5O[C@H](OC[C@@H]6O[C@H](OC[C@@H]7O[C@H](O)C[C@@H](O)[C@H]7O)C[C@@H](O)[C@H]6O)C[C@@H](O)[C@H]5O)CC[C@]4(C)[C@H]3CC[C@]12C` (stereo not given in full), the half-maximal inhibitory concentration (IC50) worked out at 650 nM.

For `C[C@]12CC[C@H](OC[C@H]3O[C@H](O)[C@H](O)[C@@H](O)[C@@H]3O)CC1CC[C@@H]1[C@@H]2CC[C@]2(C)[C@H](C3=CC(=O)OC3)CC[C@@]12O` (stereo not given in full), the concentration for half-maximal inhibition (IC50) amounted to 3 nM.

In turn, `CC(=O)C1CCC2(O)C3CCC4C[C@@H](OC[C@H]5O[C@@H](O)[C@H](O)[C@H](O)[C@H]5O)CCC4(C)C3CCC12C` (stereo not given in full) registered an IC50 of 500 nM.

`CC(=O)[C@H]1CC[C@@]2(O)[C@@H]3CC[C@H]4C[C@@H](OC[C@@H]5O[C@H](OC[C@@H]6O[C@H](O)C[C@@H](O)[C@H]6O)C[C@@H](O)[C@H]5O)CC[C@]4(C)[C@H]3CC[C@]12C` gave an IC50 of 800 nM.

`CC(O)C1CCC2(O)C3CCC4C[C@@H](OC[C@H]5O[C@@H](O)[C@H](O)[C@H](O)[C@H]5O)CCC4(C)C3CCC12C` (stereo not given in full): the 50% inhibitory concentration (IC50) was 400 nM.

In turn, `C[C@]12CC[C@H](OC[C@@H]3O[C@H](OC[C@@H]4O[C@H](OC[C@@H]5O[C@H](O)C[C@@H](O)[C@H]5O)C[C@@H](O)[C@H]4O)C[C@@H](O)[C@H]3O)C[C@@H]1CC[C@@H]1[C@@H]2CC[C@]2(C)[C@@H](C3=CC(=O)OC3)CC[C@@]12O` returned a 50% inhibitory concentration (IC50) of 8 nM.

`CC(=O)[C@H]1CC[C@@]2(O)[C@@H]3CC[C@H]4CCCC[C@]4(C)[C@H]3CC[C@]12C` registered an IC50 of more than 200000 nM.

Consider `CC(O)C1CCC2(O)C3CCC4C[C@H](OC[C@H]5O[C@@H](O)[C@H](O)[C@H](O)[C@H]5O)CCC4(C)C3CCC12C` (stereo not given in full), for which the IC50 is 75 nM.

On to `CC(O)[C@H]1CC[C@@]2(O)[C@@H]3CC[C@H]4CCCC[C@]4(C)[C@H]3CC[C@]12C` (stereo not given in full), for which the IC50 was determined as 24000 nM.

For the compound `C[C@]12CCCC[C@@H]1CC[C@@H]1[C@@H]2CC[C@]2(C)[C@@H](C3=CC(=O)OC3)CC[C@@]12O`, the IC50 is 70 nM.

For the compound `CC(=O)[C@H]1CC[C@@]2(O)[C@@H]3CC[C@H]4C[C@@H](O)CC[C@]4(C)[C@H]3CC[C@]12C`, the IC50 turned out to be 20000 nM.

The compound `C[C@]12CC[C@H](OC[C@@H]3O[C@H](O)C[C@@H](O)[C@H]3O)C[C@@H]1CC[C@@H]1[C@@H]2CC[C@]2(C)[C@@H](C3=CC(=O)OC3)CC[C@@]12O` showed an IC50 of 9 nM.

For `CC(=O)[C@H]1CC[C@@]2(O)[C@@H]3CC[C@H]4C[C@@H](OC[C@@H]5O[C@H](O)C[C@@H](O)[C@H]5O)CC[C@]4(C)[C@H]3CC[C@]12C`, the IC50 is 1300 nM.

For the origin of these results see ChEMBL document CHEMBL1125202 (J Med Chem, 1991).
